# Laboratory results published in patent US4605413A, “Stimulation of chemotaxis by chemotactic peptides” (The University of Alabama at Birmingham, priority 1983, dated 1986).
# No end group written: not given here.
# B1: C5A: activity derived from the fifth component of complement (C5a) (protein, UniProt P01031 678-751, looked up)
# C5a anaphylatoxin: TLQKKIEEIAAKYKHSVVKKCCYDGACVNNDETCEQRAARISLGPRCIKAFTECCVVASQLRANISHKDMQLGR
# modifications: C5a anaphylatoxin
# Columns and labels:
# Format in all cases: cell-based
# [1] = system: fibroblasts; assay: Fibroblast chemotaxis in multi-blind well apparatus; details: for chemotactic activity of isolated hexapeptides: qualitative; for Fibroblast Migration, Net Cells/HPF ± SEM: N = 15; for chemotactic activity in presence of antibody to elastin: polyclonal antibody to elastin present, FIG. 4
# Protocol: (§1) The chemotactic response of fibroblasts to a hexapeptide of the invention was measured using the techniques described in Senior et al, J. Clin. Invest., 70, 614-618 (1982), which is herein incorporated by reference. Although the actual conditions used may vary slightly, the following generally describes the experimental conditions.
# (§2) Chemotaxis was determined in a multi-blind well apparatus using a polycarbonate membrane with 8-μm pores on top of a cellulose nitrate membrane having 0.45-μm pores to separate each well into upper and lower compartments. The lower compartment was filled with 240 μl of solution to be assayed (or control medium) and then covered with the membranes. In the upper compartment was placed 350 μl of cell suspension containing 1.2×10^5 cells/ml.
# (§3) After both compartments of the wells were filled, the chemotaxis apparatus was placed in a humidified incubator at 37° C. in an atmosphere of 5% CO2 -95% air for several hours. The apparatus was then disassembled, and each membrane pair was removed and stained with hematoxylin. Cell migration was determined under high dry magnification (×400) by counting the cells that had moved to the interface between the two membranes and those on the lower membrane. Several high power fields (H.P.F.) were counted for each membrane. Multiple determinations of each experiment were conducted, and the results pooled. Cell migration is expressed as the net number of cells per H.P.F.; i.e., the number of cells per H.P.F. minus the number of cells per H.P.F. that migrated in response to control medium.
# [2] = system: Monocytes; assay: Desensitization of monocyte chemotaxis by pre-exposure to elastin peptides; details: for % CONTROL: desensitized vs control; for Monocyte chemotaxis, CONTROL: no pre-exposure; for Monocyte chemotaxis, CONTROL / Monocyte chemotaxis, DESENSITIZED: mean of 15; for Monocyte chemotaxis, DESENSITIZED: pre-exposed to elastin peptides; for effect of pre-exposure to elastin-derived peptide fragments on monocyte chemotactic response: monocytes pre-exposed to elastin-derived peptide fragments, qualitative
# [3] = system: young fibroblasts (not yet synthesizing elastin); assay: Chemotaxis of young (immature) fibroblasts before and after induced differentiation; details: FIG. 2
# Protocol: as §1, §2
# as §3, with “The apparatus was then disassembled, and each membrane pair was removed and stained with hematoxylin.” left out, “Multiple determinations of each experiment were conducted, and the results pooled.” left out
# [4] = FIG. 1, dose response of fibroblasts
# [5] = chemoattractant at concentration for maximum chemotaxis
molecule,measurement,setting,value
H-VAPGVG-OH [H--VAPGVG--OH],chemotactic activity of isolated hexapeptides,[1],chemotactic activity is also seen
H-PGVGVA-OH [H--PGVGVA--OH],chemotactic activity of isolated hexapeptides,[1],chemotactic activity is also seen
H-GVAPGV-OH [H--GVAPGV--OH],chemotactic activity of isolated hexapeptides,[1],chemotactic activity is also seen
"VGVAPG [VGVAPG, VAL--GLY--VAL--ALA--PRO--GLY]",% CONTROL,[2]; chemoattractant 10^-8 M,0%
same,"Monocyte chemotaxis, CONTROL",[2]; chemoattractant 10^-8 M,70 Cells per high power field
same,"Monocyte chemotaxis, DESENSITIZED",[2]; chemoattractant 10^-8 M,-4 Cells per high power field
same,% CONTROL,[2]; chemoattractant 10^-9 M,0%
same,"Monocyte chemotaxis, CONTROL",[2]; chemoattractant 10^-9 M,42 Cells per high power field
same,"Monocyte chemotaxis, DESENSITIZED",[2]; chemoattractant 10^-9 M,-2 Cells per high power field
same,effect of pre-exposure to elastin-derived peptide fragments on monocyte chemotactic response,[2],no longer show chemotaxis
same,concentration of greatest chemotactic activity,[1]; [4],10^-9 M
same,concentrations at which chemotactic response was seen,[1]; [4],higher than 10^-11 M
same,nature of fibroblast response (chemotaxis vs random movement),[1]; Table 1 gradient analysis,chemotaxis and not simply stimulation of random movement
same,"Fibroblast Migration, Net Cells/HPF ± SEM","[1]; VGVAPG lower compartment 0, upper compartment 10^-8 M",-2 ± 0.5 Net Cells/HPF
same,"Fibroblast Migration, Net Cells/HPF ± SEM","[1]; VGVAPG lower compartment 0, upper compartment 10^-9 M",0 ± 0.7 Net Cells/HPF
same,"Fibroblast Migration, Net Cells/HPF ± SEM","[1]; VGVAPG lower compartment 0, upper compartment 10^-10 M",1 ± 0.6 Net Cells/HPF
same,"Fibroblast Migration, Net Cells/HPF ± SEM","[1]; VGVAPG lower compartment 10^-8 M, upper compartment 0",27 ± 1.7 Net Cells/HPF
same,"Fibroblast Migration, Net Cells/HPF ± SEM","[1]; VGVAPG lower compartment 10^-8 M, upper compartment 10^-8 M",1 ± 0.7 Net Cells/HPF
same,"Fibroblast Migration, Net Cells/HPF ± SEM","[1]; VGVAPG lower compartment 10^-8 M, upper compartment 10^-9 M",3 ± 0.6 Net Cells/HPF
same,"Fibroblast Migration, Net Cells/HPF ± SEM","[1]; VGVAPG lower compartment 10^-8 M, upper compartment 10^-10 M",13 ± 1.8 Net Cells/HPF
same,"Fibroblast Migration, Net Cells/HPF ± SEM","[1]; VGVAPG lower compartment 10^-9 M, upper compartment 0",15 ± 1.7 Net Cells/HPF
same,"Fibroblast Migration, Net Cells/HPF ± SEM","[1]; VGVAPG lower compartment 10^-9 M, upper compartment 10^-8 M",0 ± 0.6 Net Cells/HPF
same,"Fibroblast Migration, Net Cells/HPF ± SEM","[1]; VGVAPG lower compartment 10^-9 M, upper compartment 10^-9 M",0 ± 0.4 Net Cells/HPF
same,"Fibroblast Migration, Net Cells/HPF ± SEM","[1]; VGVAPG lower compartment 10^-9 M, upper compartment 10^-10 M",7 ± 1.3 Net Cells/HPF
same,"Fibroblast Migration, Net Cells/HPF ± SEM","[1]; VGVAPG lower compartment 10^-10 M, upper compartment 0",4 ± 1.0 Net Cells/HPF
same,"Fibroblast Migration, Net Cells/HPF ± SEM","[1]; VGVAPG lower compartment 10^-10 M, upper compartment 10^-8 M",1 ± 1.0 Net Cells/HPF
same,"Fibroblast Migration, Net Cells/HPF ± SEM","[1]; VGVAPG lower compartment 10^-10 M, upper compartment 10^-9 M",-3 ± 0.4 Net Cells/HPF
same,"Fibroblast Migration, Net Cells/HPF ± SEM","[1]; VGVAPG lower compartment 10^-10 M, upper compartment 10^-10 M",2 ± 0.7 Net Cells/HPF
same,chemotactic activity of isolated hexapeptides,[1],most chemotactic of the isolated hexapeptides
same,chemotactic activity in presence of antibody to elastin,[1],blocks the chemotactic activity
same,migration of young fibroblasts,[3],do not migrate
H-GVGVAP-OH [H--GVGVAP--OH],chemotactic activity of isolated hexapeptides,[1],chemotactic activity is also seen
H-APGVGV-OH [H--APGVGV--OH],chemotactic activity of isolated hexapeptides,[1],chemotactic activity is also seen
"CSCC[C@H](NC=O)C(=O)N[C@@H](CC(C)C)C(=O)N[C@@H](Cc1ccccc1)C(=O)O [FMLP, formylmethionylleucylphenylalanine, reference compound]",% CONTROL,[2]; chemoattractant 10^-8 M,77%
same,"Monocyte chemotaxis, CONTROL",[2]; chemoattractant 10^-8 M,100 Cells per high power field
same,"Monocyte chemotaxis, DESENSITIZED",[2]; chemoattractant 10^-8 M,77 Cells per high power field
same,% CONTROL,[2]; chemoattractant 10^-9 M,100%
same,"Monocyte chemotaxis, CONTROL",[2]; chemoattractant 10^-9 M,45 Cells per high power field
same,"Monocyte chemotaxis, DESENSITIZED",[2]; chemoattractant 10^-9 M,45 Cells per high power field
same,effect of pre-exposure to elastin-derived peptide fragments on monocyte chemotactic response,[2],pre-exposure has no effect on response
platelet-derived growth factor [PDGF],"Fibroblast Migration, Positive Control","[1]; PDGF, 10^-9 M",31 Cells/HPF
same,chemotactic activity in presence of antibody to elastin,[1],has no effect on the chemotactic activity
same,migration of young fibroblasts,[3],have the capacity to migrate
B1,% CONTROL,[2]; [5],100%
same,"Monocyte chemotaxis, CONTROL",[2]; [5],102 Cells per high power field
same,"Monocyte chemotaxis, DESENSITIZED",[2]; [5],102 Cells per high power field
same,effect of pre-exposure to elastin-derived peptide fragments on monocyte chemotactic response,[2],pre-exposure has no effect on response
